Experimental data taken from the NIST ThermoML archive (doi:10.1016/j.jct.2012.11.015).
Numbers after ± are expanded uncertainties.

How the values were obtained:
[1] = Liquid; for speed of sound: Sing-around technique in a fixed-path interferometer; for mass density: Vibrating tube method
[2] = refractive index (Na D-line) (dimensionless); conditions: 298.15 K; 101.33 kPa; Liquid; Standard Abbe refractometry
[3] = xn = mol fraction of the nth substance listed; conditions: 101 kPa, Liquid, Vibrating tube method

CCCCCCCCCCO [decan-1-ol]
[1]
Conditions	mass density, 298.15 K [kg/m3]	mass density, 303.15 K [kg/m3]	mass density, 308.15 K [kg/m3]	mass density, 313.15 K [kg/m3]	speed of sound, 298.15 K [m/s]
101 kPa	–	822.853 ± 0.2	819.427 ± 0.2	816.383 ± 0.2	–
101.33 kPa	826.562 ± 0.2	–	–	–	1380 ± 1.5

Conditions	refractive index
[2]	1.4348 ± 0.0009

CCCCCCCCCCO [decan-1-ol] + CN(C)C=O
mass density [kg/m3], [3]
Conditions	x2 = 0	x2 = 0.2361	x2 = 0.4193	x2 = 0.5688	x2 = 0.6724	x2 = 0.7496	x2 = 0.8185	x2 = 0.8748	x2 = 0.923	x2 = 0.9632
298.15 K	826.562 ± 0.2	838.6 ± 0.16	851.13 ± 0.13	864.685 ± 0.11	876.794 ± 0.1	887.827 ± 0.092	899.61 ± 0.083	910.986 ± 0.076	922.298 ± 0.07	933.094 ± 0.065
303.15 K	822.853 ± 0.2	834.589 ± 0.16	846.845 ± 0.13	860.269 ± 0.12	872.216 ± 0.1	883.031 ± 0.093	894.603 ± 0.085	905.795 ± 0.078	916.997 ± 0.072	927.772 ± 0.067
308.15 K	819.427 ± 0.2	830.903 ± 0.16	843.033 ± 0.14	856.394 ± 0.12	868.282 ± 0.1	879.008 ± 0.095	890.399 ± 0.086	901.448 ± 0.08	912.559 ± 0.073	923.333 ± 0.068
313.15 K	816.383 ± 0.2	827.267 ± 0.16	839.221 ± 0.14	852.343 ± 0.12	863.94 ± 0.1	874.443 ± 0.096	885.574 ± 0.088	896.397 ± 0.081	907.34 ± 0.075	918.051 ± 0.07

CN(C)C=O [dimethylformamide]
[1]
Conditions	mass density, 298.15 K [kg/m3]	mass density, 303.15 K [kg/m3]	mass density, 308.15 K [kg/m3]	mass density, 313.15 K [kg/m3]	speed of sound, 298.15 K [m/s]
101 kPa	–	939.047 ± 0.059	934.721 ± 0.06	929.478 ± 0.062	–
101.33 kPa	944.29 ± 0.057	–	–	–	1457.7 ± 1.2

Conditions	refractive index
[2]	1.428 ± 0.0009

CN(C)C=O [dimethylformamide] + CCCCCCCCCCO
[3], x1 = 1
Conditions	mass density [kg/m3]
298.15 K	944.29 ± 0.057
303.15 K	939.047 ± 0.059
308.15 K	934.721 ± 0.06
313.15 K	929.478 ± 0.062

CN(C)C=O [dimethylformamide] + CCCCCCCCCO
[3], x1 = 1
Conditions	mass density [kg/m3]
298.15 K	944.29 ± 0.057
303.15 K	939.047 ± 0.059
308.15 K	934.721 ± 0.06
313.15 K	929.478 ± 0.062

CN(C)C=O [dimethylformamide] + CCCCCCCCO
[3], x1 = 1
Conditions	mass density [kg/m3]
298.15 K	944.29 ± 0.057
303.15 K	939.047 ± 0.059
308.15 K	934.721 ± 0.06
313.15 K	929.478 ± 0.062

CCCCCCCCCO [nonan-1-ol]
[1]
Conditions	mass density, 298.15 K [kg/m3]	mass density, 303.15 K [kg/m3]	mass density, 308.15 K [kg/m3]	mass density, 313.15 K [kg/m3]	speed of sound, 298.15 K [m/s]
101 kPa	–	821.044 ± 0.62	817.582 ± 0.61	814.098 ± 0.61	–
101.33 kPa	824.478 ± 0.62	–	–	–	1365.5 ± 2.3

Conditions	refractive index
[2]	1.4319 ± 0.0009

CCCCCCCCCO [nonan-1-ol] + CN(C)C=O
mass density [kg/m3], [3]
Conditions	x2 = 0	x2 = 0.2201	x2 = 0.3969	x2 = 0.5458	x2 = 0.6515	x2 = 0.7321	x2 = 0.8042	x2 = 0.8644	x2 = 0.9168	x2 = 0.9596
298.15 K	824.478 ± 0.62	836.826 ± 0.43	849.646 ± 0.31	863.512 ± 0.22	875.893 ± 0.17	887.234 ± 0.14	899.18 ± 0.11	910.842 ± 0.092	922.441 ± 0.078	933.098 ± 0.067
303.15 K	821.044 ± 0.62	833.085 ± 0.43	845.647 ± 0.31	859.175 ± 0.22	871.335 ± 0.17	882.498 ± 0.14	894.281 ± 0.11	905.742 ± 0.094	917.225 ± 0.079	927.834 ± 0.069
308.15 K	817.582 ± 0.61	829.399 ± 0.43	841.793 ± 0.31	855.283 ± 0.22	867.284 ± 0.17	878.301 ± 0.14	889.932 ± 0.11	901.314 ± 0.095	912.742 ± 0.081	923.379 ± 0.071
313.15 K	814.098 ± 0.61	825.49 ± 0.43	837.685 ± 0.31	851.074 ± 0.22	862.916 ± 0.17	873.711 ± 0.14	885.08 ± 0.12	896.217 ± 0.097	907.487 ± 0.083	918.072 ± 0.073

CCCCCCCCO [octan-1-ol]
[1]
Conditions	mass density, 298.15 K [kg/m3]	mass density, 303.15 K [kg/m3]	mass density, 308.15 K [kg/m3]	mass density, 313.15 K [kg/m3]	speed of sound, 298.15 K [m/s]
101 kPa	–	818.209 ± 0.21	814.742 ± 0.21	810.629 ± 0.21	–
101.33 kPa	821.222 ± 0.21	–	–	–	1347.8 ± 1.5

Conditions	refractive index
[2]	1.4273 ± 0.0009

CCCCCCCCO [octan-1-ol] + CN(C)C=O
mass density [kg/m3], [3]
Conditions	x2 = 0	x2 = 0.2198	x2 = 0.3728	x2 = 0.5208	x2 = 0.6277	x2 = 0.7118	x2 = 0.7877	x2 = 0.8519	x2 = 0.9085	x2 = 0.9556
298.15 K	821.222 ± 0.21	835.186 ± 0.17	847.253 ± 0.14	861.646 ± 0.12	874.238 ± 0.11	885.914 ± 0.097	898.138 ± 0.087	909.952 ± 0.078	921.843 ± 0.071	932.914 ± 0.065
303.15 K	818.209 ± 0.21	831.811 ± 0.17	843.584 ± 0.15	857.568 ± 0.12	869.964 ± 0.11	881.458 ± 0.098	893.435 ± 0.088	905.109 ± 0.08	916.796 ± 0.073	927.592 ± 0.067
308.15 K	814.742 ± 0.21	828.086 ± 0.17	839.752 ± 0.15	853.623 ± 0.12	865.852 ± 0.11	877.239 ± 0.1	889.113 ± 0.09	900.709 ± 0.081	912.287 ± 0.074	923.224 ± 0.068
313.15 K	810.629 ± 0.21	823.708 ± 0.17	835.263 ± 0.15	849.056 ± 0.13	861.125 ± 0.11	872.405 ± 0.1	884.137 ± 0.091	895.506 ± 0.083	907.01 ± 0.076	917.847 ± 0.07
